Assay results: ChEMBL document CHEMBL1145960, “Substituted pyrazolopyridopyridazines as orally bioavailable potent and selective PDE5 inhibitors: potential agents for treatment of erectile dysfunction” (J Med Chem, 2003)

Legend:
[1] = Relative inhibition of PDE1 from bovine heart and PDE5 from human platelets
[2] = Relative inhibition of PDE2 from rat kidney and PDE5 from human platelets
[3] = Relative inhibition of PDE4 from rat kidney and PDE5 from human platelets
[4] = Relative inhibition of PDE6 from bovine retina and PDE5 from human platelets
[5] = target: cGMP-specific 3',5'-cyclic phosphodiesterase (Homo sapiens, UniProt O76074); assay: Inhibition of Phosphodiesterase 5 from human platelets
[6] = target: Phosphodiesterase 3 and 5 (PDE3 and PDE5) (Homo sapiens) (UniProt O76074+Q14432+Q13370); assay: Relative inhibition of PDE3 and PDE5 from human platelets
[7] = Half life of compound was determined in male dogs; type: ADME, organism-based, Canis lupus familiaris; conditions: dog, in vivo
[8] = Half life of compound was determined in male rats; type: ADME, organism-based; conditions: rat, in vivo
[9] = Bioavailability in dog (male); type: ADME, organism-based, Canis lupus familiaris; conditions: in vivo
[10] = Bioavailability in rat (male); type: ADME, organism-based; conditions: in vivo
[11] = Relaxant effect mediated by PDE5 inhibition in rabbit corpus cavernosum; type: functional, tissue-based, Oryctolagus cuniculus
Oryctolagus cuniculus = species: Oryctolagus cuniculus; assay: Increased mean blood pressure in rabbit corpus carvenosum; type: functional

| Ratio [1] | Ratio [2] | Ratio [3] | Ratio [4] | IC50 [5] [nM] | Ratio [6] | half-life [7] [h] | half-life [8] [h] | bioavailability [9] [%] | bioavailability [10] [%] | EC50 [11] [nM] | SMILES | ED50 (Oryctolagus cuniculus) [µmol/kg] |
| --- | --- | --- | --- | --- | --- | --- | --- | --- | --- | --- | --- | --- |
| 6400 | 9200 | 600 | 47 |  |  |  |  |  |  |  | CCn1ncc2c(NCc3ccc(OC)c(Cl)c3)c(C(=O)NCc3ccncc3)cnc21 |  |
| > 10000 | > 10000 | 7500 | 30 | 0.03 | > 10000 |  |  |  |  |  | CCn1ncc2c3c(NCc4ccc(OC)c(Cl)c4)nnc(N4CCC(C(=O)O)CC4)c3cnc21 |  |
| > 10000 | > 10000 | > 10000 | 150 | 0.3 |  | 2 | 1.2 | 42 | 29 | 13 | CCn1ncc2c3c(NCc4ccc(OC)c(Cl)c4)nnc(-n4cnc(C(=O)NC)c4)c3cnc21 | 0.1 |
| 5700 | 4000 | 300 | 80 |  | 7500 |  |  |  |  |  | CCn1ncc2c3c(NCc4ccc(OC)c(Cl)c4)nnc(N4CCC(O)CC4)c3cnc21 |  |
| > 10000 | > 10000 | 4000 | 210 | 0.1 | > 10000 |  |  |  |  |  | CCn1ncc2c3c(NCc4ccc(OC)c(Cl)c4)nnc(NCc4ccncc4)c3cnc21 |  |
|  |  |  |  |  |  |  |  |  |  | 19 | CCCc1nn(C)c2c(=O)[nH]c(-c3cc(S(=O)(=O)N4CCN(C)CC4)ccc3OCC)nc12 | 0.11 |
